No end group written: not given here.
What was measured:
BALB/c mice [1] = test: Ototoxicity of topical administration in normal mice, ABR; format: in vivo, mouse; details: 1, 10, 10 (twice) or 60 μg/30 μL topically; ABR 1-4 weeks
Procedure: P13 (SEQ ID NO: 369) was investigated for possible negative impact on hearing in normal mice upon administration by ear drops. BALB/c mice, 16 weeks of age, (n=16) received two baseline auditory brainstem response (ABR) tests one week apart, and an otoscopic exam in both ears. ABR stimuli consisted of 20 tone-burst trains at 4 kHz, 8 kHz, 16 kHz and 32 kHz at five intensity levels in 10 dB steps, as previously described. An otoscopic exam was performed using an operating microscope to establish the clinical symptoms of AOM, as previously described. Any animal with an abnormal ABR or exam on pre-screen was not entered into the study.
All 16 animals remained in the study and were divided into five groups as follows:
group 1: (n=6 ears) 1 μg P13 (SEQ ID NO: 369)/30 μl, topically, given once;
group 2: (n=7 ears) 10 μg P13 (SEQ ID NO: 369)/30 μL, topically, given once;
group 3: (n=7 ears) 10 μg P13 (SEQ ID NO: 369)/30 μL, topically, given twice, 24 hours apart;
group 4: (n=6 ears) 60 μg P13 (SEQ ID NO: 369)/30 μL, topically, given once; and
ABRs were performed at one, two, three and four weeks post P13 (SEQ ID NO: 369) treatment. The two baseline ABRs were averaged and compared to the ABRs post P13 (SEQ ID NO: 369) treatment.

BALB/c mice [2] = test: Effects of peptide on middle ear without added bacteria; format: in vivo, mouse; details: 10 μM, no bacteria, 3 days; p=0.104, 0.880, 0.891
Procedure: BALB/c (Bagg albino) mice, about 8-12 weeks of age, are anesthetized with a subcutaneous injection of xylazine & ketamine (about 0.1 mg/30 gm body weight) and their ears examined under the operating microscope to assure they are free of infection or perforation. One group of animals is injected with PBS (Phospho-buffered saline) in one ear and with about 10 μM of a peptide of Table 1 in the opposite ear, to determine the effect of peptide without added bacteria. A second group of animals receive about 5.0 μl of PBS plus heat-inactivated S. pneumoniae (about 10^9 CFU/ml) in one ear and about 5.0 μl of peptide (about 10 μM) plus heat-inactivated S. pneumoniae (about 10^9 CFU/ml) in the opposite ear. […] Inflammation is quantified by measuring 1) area of fluid present in the middle ear; 2) number of cells in middle ear fluid; and 3) thickness of the tympanic membrane (TM) taken at a point away from the injection site. Data are obtained from mice (n=18) injected with PBS alone for each of the histological parameters measured, to serve as a control group.
Five mice were injected in one ear with PBS and in the opposite ear with 10 μM peptide P13 (SEQ ID NO: 369). Three days later the animals were killed, and the middle ears embedded, sectioned, stained and evaluated for fluid area, infiltrating cell number, and thickness of the tympanic membrane. […]

[3] = test system: TNF-α production in RAW264.7 cells; format: cell-based, murine; details: 30 μg/mL, 15 minutes pre-incubation, 4 hours

Sequence | impact on hearing thresholds in normal mice (ototoxicity) (BALB/c mice [1]) | differences between PBS-injected ear and P13-injected ear in fluid area, cell number, tympanic membrane thickness (BALB/c mice [2]) | NCE-stimulated TNF-α production compared to control peptide [3]
DIVKLTVYDCI [Peptide P13, DIVKLTVYDCI] | did not negatively impact hearing thresholds | no differences | 
EEYFMYRGLLGLRIKYG [Peptide P7] |  |  | significantly inhibited
